Tests used:
Type in all cases: cell-based
NCI-H226 cells [1] = assay: NCI-H226 proliferation assay (Wuxi AppTec); details: Homo sapiens, 168 h, 7 days, CellTiter-Glo, top dose 10, 3-fold dilution, 9 doses
Method: […] Proliferation Assay (From Wuxi AppTec CO.):
Day −1: Seeding cells • (1) Equilibrate cell culture medium to 37° C. • (2) Remove and discard the culture medium. • (3) Briefly rinse the cell layer with PBS to remove all traces of serum that contains […]. • (4) Add 2-3 mL of Trypsin-EDTA solution to flask and observe cells under an inverted microscope until cell layer is dispersed. • (5) Add 6-8 mL of growth medium to terminate the digestion of Trypsin/EDTA. • (6) Centrifuge the mixture (Trypsin EDTA and the growth medium) at 1000 rpm for 5 mins. • (7) Discard the supernatant, suspend the cell precipitation with the fresh growth medium, then take 1 mL the cell suspension to count cells with Vi-cell XR cell viability analyzer. • (8) Adjust the cell density to 500 cells/well for 384-well plates. • (9) Add 50 µL/well volume cell suspension to the assay plate. • (10) Add […] media to the control columns. • (11) Incubate the plate at 37° C., 5% CO2 for overnight. Day 0: Compounds treatment • (1) Add cpds to each well by Tecan HP D300E. The top dose is […], 3-fold dilution and 9 doses. DMSO final concentration will be normalized to 0.2%. • (2) Incubate the assay plate at 37° C., 5% CO2 for 7 days. Day 7: Plate read • (1) Equilibrate the assay plate to the room temperature for nearly 30 minutes. • (2) Add […] CellTiter-Glo reagent to each well and shake the plate for 1 min, incubate 10 min and keep them from light. • (3) Detect the plate by EnVision. Data analysis:
Max: Average of the DMSO group Min: Average of medium group.

NCI-H226 cells [2] = assay: NCI-H226 proliferation assay (in house); details: Homo sapiens, 120 h, 5 days, Cell TiterGlo, 20-point 1:2 dilution from 20 μM
How it was run: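 Cells in RPMI 1640 + 10% FBS, 500 per well, dosed after 24 h with 20-point 1:2 dilutions from 20 μM (final), in triplicate. After 5 days at 37 °C, 5% CO2, viability read by CellTiter-Glo luminescence.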

[3] = tested on: transcriptional activity of TEADs; assay: TEAD reporter assay (MCF7 TEAD-LUC reporter cells); details: Homo sapiens, 24 hours, BrightGlo luminescence
How it was run: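 MCF7 TEAD-LUC reporter cells were plated at 5,000/well and after 24 h treated with a 20-point 1:2 series from 20 μM final, in triplicate. Luciferase was read by BrightGlo luminescence after 24 h exposure at 37 °C.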

| SMILES | IC50 (NCI-H226 cells [1]) | IC50 (NCI-H226 cells [2]) | IC50 [3] |
| --- | --- | --- | --- |
| C=CC(=O)N1CCN(c2nccnc2Nc2ccc(OC(F)F)nc2)CC1 [Example 49, 1-(4-(3-((6-(difluoromethoxy)pyridin-3-yl)amino)pyrazin-2-yl)piperazin-1-yl)prop-2-en-1-one] | 0.031 µM | 0.055 µM | 2 nM |
| C=CC(=O)N1CCC(n2nc(C)cc2C(=O)c2ccc(C(F)(F)F)cc2)CC1 [Example 166, 1-(4-(3-methyl-5-(4-(trifluoromethyl)benzoyl)-1H-pyrazol-1-yl)piperidin-1-yl)prop-2-en-1-one] | 0.015 µM | 0.02 µM | 0.6 nM |
| C=C(F)C(=O)N1CC=C(c2cccnc2Oc2ccc(C(F)(F)F)nc2)CC1 [Example 154, 2-fluoro-1-(2-((6-(trifluoromethyl)pyridin-3-yl)oxy)-3′,6′-dihydro-[3,4′-bipyridin]-1′(2′H)-yl)prop-2-en-1-one] | 0.02 µM | 0.05 µM | 2.9 nM |
| C=CC(=O)N1CC=C(c2nccnc2Nc2ccc(C(F)(F)F)nc2)CC1 [Example 55, 1-(4-(3-((6-(trifluoromethyl)pyridin-3-yl)amino)pyrazin-2-yl)-3,6-dihydropyridin-1(2H)-yl)prop-2-en-1-one] | 0.058 µM | 0.03 µM | 4 nM |
| C=CC(=O)N1CCC(c2cccnc2Oc2ccc(C(F)(F)F)nc2)CC1 [Example 155, 1-(4-(2-((6-(trifluoromethyl)pyridin-3-yl)oxy)pyridin-3-yl)piperidin-1-yl)prop-2-en-1-one] | 0.018 µM | 0.015 µM | 1.8 nM |
| C=CC(=O)N1CCN(c2nccnc2Nc2cnc(C(F)(F)F)c(F)c2)CC1 [Example 50, 1-(4-(3-((5-fluoro-6-(trifluoromethyl)pyridin-3-yl)amino)pyrazin-2-yl)piperazin-1-yl)prop-2-en-1-one] | 0.026 µM | 0.034 µM | 3.1 nM |
| C=CC(=O)N1CC=C(c2nccnc2Nc2ccc(C(F)(F)F)cn2)CC1 [Example 43, 1-(4-(3-((5-(trifluoromethyl)pyridin-2-yl)amino)pyrazin-2-yl)-3,6-dihydropyridin-1(2H)-yl)prop-2-en-1-one] | 0.011 µM | 0.006 µM | 1 nM |
| C=CC(=O)N1CC=C(c2nccnc2Oc2ccc(C(F)(F)F)cn2)CC1 [Example 74, 1-(4-(3-((5-(trifluoromethyl)pyridin-2-yl)oxy)pyrazin-2-yl)-3,6-dihydropyridin-1(2H)-yl)prop-2-en-1-one] | 0.121 µM | 0.449 µM | 2.4 nM |
| C=CC(=O)N1CCN(c2nccnc2Nc2ccc(OC(F)(F)F)nc2)CC1 [Example 48, 1-(4-(3-((6-(trifluoromethoxy)pyridin-3-yl)amino)pyrazin-2-yl)piperazin-1-yl)prop-2-en-1-one] | 0.032 µM | 0.023 µM | 0.7 nM |
| C=CC(=O)N1CC=C(c2cccnc2Oc2cnc(C(F)(F)F)nc2)CC1 [Example 157, 1-(2-((2-(trifluoromethyl)pyrimidin-5-yl)oxy)-3′,6′-dihydro-[3,4′-bipyridin]-1′(2′H)-yl)prop-2-en-1-one] | 0.013 µM | 0.132 µM | 1.6 nM |
| C#CCC1CN(c2nccnc2Nc2ccc(C(F)(F)F)cc2)CCN1C(=O)C=C (stereo not drawn) [Example 23, 1-(2-(prop-2-yn-1-yl)-4-(3-((4-(trifluoromethyl)phenyl)amino)pyrazin-2-yl)piperazin-1-yl)prop-2-en-1-one] | 0.151 µM | 0.651 µM | 0.3 nM |
| C=C(F)C(=O)N1CCN(c2nccnc2Oc2cnc(C(F)(F)F)nc2)CC1 [Example 88, 2-fluoro-1-(4-(3-((2-(trifluoromethyl)pyrimidin-5-yl)oxy)pyrazin-2-yl)piperazin-1-yl)prop-2-en-1-one] | 0.027 µM | 0.047 µM | 1.9 nM |
| C=CC(=O)N1CCC(c2ncccc2Oc2ccc(C(F)(F)F)nc2)CC1 [Example 138, 1-(4-(3-((6-(trifluoromethyl)pyridin-3-yl)oxy)pyridin-2-yl)piperidin-1-yl)prop-2-en-1-one] | 0.134 µM | 2.4 µM | 54 nM |

Other lines, results leading:

| IC50 (NCI-H226 cells [1]) | IC50 (NCI-H226 cells [2]) | IC50 [3] | SMILES |
| --- | --- | --- | --- |
| 0.05 µM | 0.004 µM | 1.1 nM | C=CC(=O)N1CCN(c2nccnc2N2CCC(C(F)(F)F)CC2)CC1 [Example 105, 1-(4-(3-(4-(trifluoromethyl)piperidin-1-yl)pyrazin-2-yl)piperazin-1-yl)prop-2-en-1-one] |
| 0.033 µM | 0.164 µM | 1.8 nM | C=CC(=O)N1CC=C(c2nccnc2Oc2cnc(C(F)(F)F)nc2)CC1 [Example 89, 1-(4-(3-((2-(trifluoromethyl)pyrimidin-5-yl)oxy)pyrazin-2-yl)-3,6-dihydropyridin-1(2H)-yl)prop-2-en-1-one] |
| 0.011 µM | 0.005 µM | 0.52 nM | C=CC(=O)N1CCN(c2nccnc2Oc2ccc(OC(F)(F)F)cc2)CC1 [Example 72, 1-(4-(3-(4-(trifluoromethoxy)phenoxy)pyrazin-2-yl)piperazin-1-yl)prop-2-en-1-one] |
| 0.007 µM | 0.008 µM | 1.3 nM | C=CC(=O)N1CCN(c2nccnc2Oc2ccc(OC(F)F)cc2)CC1 [Example 71, 1-(4-(3-(4-(difluoromethoxy)phenoxy)pyrazin-2-yl)piperazin-1-yl)prop-2-en-1-one] |
| 0.065 µM | 0.034 µM | 1.4 nM | C=CC(=O)N1CC=C(c2cccnc2Oc2ccc(C(F)(F)F)nc2)CC1 [Example 153, 1-(2-((6-(trifluoromethyl)pyridin-3-yl)oxy)-3′,6′-dihydro-[3,4′-bipyridin]-1′(2′H)-yl)prop-2-en-1-one] |
| 0.046 µM | 0.067 µM | 3 nM | C=CC(=O)N1CCN(c2nccnc2N2CC3(CC(C(F)(F)F)C3)C2)CC1 [Example 110, 1-(4-(3-(6-(trifluoromethyl)-2-azaspiro[3.3]heptan-2-yl)pyrazin-2-yl)piperazin-1-yl)prop-2-en-1-one] |
| 0.031 µM | 0.033 µM | 5.9 nM | C=C(F)C(=O)N1CC=C(c2nccnc2Oc2cnc(C(F)(F)F)nc2)CC1 [Example 90, 2-fluoro-1-(4-(3-((2-(trifluoromethyl)pyrimidin-5-yl)oxy)pyrazin-2-yl)-3,6-dihydropyridin-1(2H)-yl)prop-2-en-1-one] |
| 0.082 µM | 0.179 µM | 1.6 nM | C=CC(=O)N1CCN(c2nc(C)ncc2Nc2ccc(C(F)(F)F)cc2)CC1 [Example 128, 1-(4-(2-methyl-5-((4-(trifluoromethyl)phenyl)amino)pyrimidin-4-yl)piperazin-1-yl)prop-2-en-1-one] |
| 0.009 µM | 0.032 µM | 2.1 nM | C=C(F)C(=O)N1CCN(c2nccnc2Oc2ccc(C(F)(F)F)nc2)CC1 [Example 78, 2-fluoro-1-(4-(3-((6-(trifluoromethyl)pyridin-3-yl)oxy)pyrazin-2-yl)piperazin-1-yl)prop-2-en-1-one] |
| 0.089 µM | 0.012 µM | 3.6 nM | C=CC(=O)N1CCN(c2nccnc2C(=O)c2ccc(C(F)(F)F)nc2)CC1 [Example 96, 1-(4-(3-(6-(trifluoromethyl)nicotinoyl)pyrazin-2-yl)piperazin-1-yl)prop-2-en-1-one] |
| 0.011 µM | 0.016 µM | 1.6 nM | C=C(F)C(=O)N1CC=C(c2nccnc2Oc2ccc(C(F)(F)F)nc2)CC1 [Example 85, 2-fluoro-1-(4-(3-((6-(trifluoromethyl)pyridin-3-yl)oxy)pyrazin-2-yl)-3,6-dihydropyridin-1(2H)-yl)prop-2-en-1-one] |
| 1.7 µM | 1.5 µM | 4.8 nM | C=C(F)C(=O)N1CC(Nc2nccnc2Nc2ccc(C(F)(F)F)nc2)C1 [Example 63, 2-fluoro-1-(3-((3-((6-(trifluoromethyl)pyridin-3-yl)amino)pyrazin-2-yl)amino)azetidin-1-yl)prop-2-en-1-one] |

From patent US20250206722A1, “SMALL MOLECULE INHIBITORS OF TEA DOMAIN FAMILY MEMBERS” (The Scripps Research Institute, priority 2022, published 2025)
